Key:
NIH3T3 cell line (D5C3) = experiment: Blocking transformed phenotype of D5C3 cells (temperature-sensitive v-abl); format: cell-based, murine; design: key to Phenotype: 1+ represents a typical fibroblastic appearance of nontransformed NIH3T3 cells; visually graded on a scale of + (1+) to +++++ (5+); visually graded on a scale of + (1+) to +++++ (5+); +++++: 5+ represents a fully transformed phenotype; key to Growth: the nontransformed cells were scored as 1+ (for slower growth); graded from + (1+) to +++++ (5+); graded from + (1+) to +++++ (5+); +++++: the transformed cells were scored as 5+ (for rapid growth); settings: for Growth / Phenotype: ciprofloxacin 50 µg/ml; for Phenotype: visually graded
Description: In an additional assay method of the invention, the effect of coadministering a xanthine compound with a candidate inhibitor for P450 can be assessed using transformed NIH3T3-[…] cells and comparing the effect on transformation phenotype among control, incubation with the xanthine derivative alone, and coincubation of the xanthine derivative with the P450 enzyme inhibitor. An NIH3T3 cell line ([…]) provides target cells which were transformed by an activated oncogene. The cells were transformed with a temperature-sensitive v-abl mutant gene. This mutant gene encodes a temperature-sensitive v-abl protein that produces a non-oncogenic product at a non-permissive temperature due to a lack of tyrosine phosphorylation. The cells were incubated at the permissive temperature (33°C) for 5 days after passage with and without pentoxifylline (1 mM).

T cell proliferation = settings: Singer et al.; cited from earlier work
[1] = system: IL-8 encoding mRNA in U937 and THP1; experiment: Northern blot of IL-8 mRNA after lipopolysaccharide or GM-CSF induction; format: cell-based
Description: The murine fibrosarcoma cell line, L929, was also tested as an indicator for assays of TNF cytotoxicity. Cell growth was assayed by crystal violet staining using optical density as a measure of growth. […] Finally, two monocytic cell lines, U937 and THP1, were used to test the effect of pentoxifylline on the […] of the cytokine IL-8. The cell lines in culture were induced to upregulate IL-8 production by lipopolysaccharide or GM-CSF.

[2] = system: IL-2 transcripts in CD3 positive lymphocytes; experiment: Northern blot, mixed lymphocyte reaction; format: cell-based; settings: Figure 19B
[3] = system: Steel factor transcripts in marrow stromal cell lines; experiment: Northern blot of Steel factor transcripts; format: cell-based; settings: three-hour incubation; passaged (native) or cloned (CDCL) lines
[4] = system: phosphatidic acid phosphohydrolase (PAPH); experiment: Invention assay (lipid HPLC after IL-1), indirect enzyme inhibition; format: cell-based, Human
Description: (§1) As shown hereinbelow, a simple assay involving incubation of target cells with primary stimulus in the presence or absence of the xanthine derivative followed by extraction and analysis of lipid content is diagnostic of the levels of various members of the foregoing pathway as characterized by their fatty acyl content. This assay indirectly measures the effect of the xanthine derivative on the relevant enzymes lysophosphatidic acid acyltransferase (LPAAT) and phosphatidic acid phosphoryl hydrolase (PAPH). In general, inhibition of these enzymes is effected by the xanthine derivative, thus resulting in lowering of the levels of the relevant species of the particular acylated subspecies of PA and DAG intermediates.
(§2) This example also illustrates the method of the invention.
(§3) Human glomerular mesangial cells were incubated with IL-1 for various time periods of 5-60 seconds and the cells were fixed in ice-cold methanol, and the lipids extracted using chloroform:methanol 2:1 (v/v). It is very important that the fixing/extraction process be conducted quickly so that the decomposition of unstable intermediates is halted.
(§4) The extracts were subjected to HPLC on a Rainin mu-Porasil column with a 3:4 hexane:propanol organic carrier and a 1-10% water gradient during the first 10 minutes of separation. The relative concentration of each lipid species is determined using absorption at 206 nm (A206), which follows unsaturated acyl content of lipid species. […] The absolute mass of each lipid species is determined by isolation of the lipid using a fraction collector, repurification on the HPLC column. Determination of phospholipid phosphorus is as nmoles/mg cellular protein. Protein concentration is determined using the Bradford technique.
(§5) Thus, the lyso PA that accumulates contains high levels of unsaturated fatty acids. Pentoxifylline in a dose range greater than 500 µM results in inhibition both of phosphatidate phosphohydrolase and of lyso PA acyl transferase.

[5] = system: lyso-PA acyl transferase (LPAAT); experiment: as above; format: cell-based, Human; settings: IL-1-stimulated HMC
Description: as §1, §2, §3, §4, §5

[6] = system: NIH3T3 murine fibroblast cells transformed with a mutated K-ras; experiment: Subcutaneous tumors of K-ras-transformed NIH3T3 cells in nude mice; format: in vivo; settings: after eight days, 10^6 cells subcutaneously
Description: Nude mice were injected subcutaneously with 10^6 cells and were treated either once or twice daily with 100 mg/kg pentoxifylline intraperitoneally. Control animals treated with only saline injections developed tumors that weighed 2.5 ±0.2 g after eight days. Animals treated once daily with pentoxifylline had tumors that weighed only 0.45 ±0.2 g while animals treated twice daily had tumors that weighed 0.2 ±0.1 g.

[7] = system: NIH3T3 murine fibroblast cells transformed with a mutated K-ras; experiment: Growth and anchorage-independent growth in soft agar of K-ras-transformed cells in vitro; format: cell-based; settings: Mus musculus, NIH3T3, read-out: concentrations resulting in inhibition of growth and suppression of anchorage-independent growth
Description: Additionally, NIH3T3 murine fibroblast cells transformed with a mutated K-ras (codon 12 Gly-Val) were tested in vitro and in nude mice.

CD3-positive lymphocytes = experiment: Proliferation (thymidine uptake) of CD2-positive cells stimulated by anti-CD3 monoclonal antibody; format: cell-based
Description: In these experiments, freshly isolated, CD2-positive cells were stimulated by a solid-phase monoclonal antibody to acquire a CD3 phenotype, and then PTX was added. […] The block in proliferation could not be overcome by addition of either tumor necrosis factor (Figures 20 and 21) or IL-1 (Figure 21). […] The cytokines and PTX were added at culture inception and the cells were harvested after 5 days.

[8] = system: IL-2 receptor transcripts in CD3 positive lymphocytes; experiment: Northern blot, mixed lymphocyte reaction; format: cell-based; settings: Figure 19C
[9] = system: Human glomerular mesangial cells; experiment: Invention assay: HPLC of lipids (PA, DAG) extracted from IL-1-stimulated mesangial cells; format: cell-based
Description: The compounds of Formula I are shown to modulate the effects of primary stimuli which elevate levels of the relevant subspecies of PA and DAG using the assay system of the invention. In general for the assay, the cells to be tested are first incubated with the primary stimulating agent for various time periods and fixed in ice-cold methanol. The lipids are extracted using, for example, chloroform:methanol 2:1 (v/v), and the extracts are then subjected to HPLC as described by Bursten and Harris, Biochemistry (1991) . In this method, a Rainin mu-Porasil column is used with a 3:4 hexane:propanol organic carrier and a 1-10% water gradient during the first 10 minutes of separation. Detection of the peaks in the elution pattern is by absorption in the range of ultraviolet which detects isolated double bonds. Thus, the relevant peaks of unsaturated PA and DAG are shown in the elution pattern. It is important to note that the assay method permits discrimination between various forms of PA and DAG so that those relevant to the pathway affected by the compounds of Formula I can be measured directly. Confirmation of the nature of the acyl substituents of these components is accomplished using fast-atom bombardment mass spectroscopy. Thus, the relevant unsaturated (non-arachidonic) PA and DAG subspecies may be detected. The time periods employed are 5-60 seconds after stimulation with the primary stimulus, such as a cytokine. This technique permits assessment of the levels of various lipid components as a function of time. […]
as §4, with “Determination of phospholipid phosphorus is as nmoles/mg cellular protein.” left out, “technique. […]” for “technique.”

[10] = system: IL-6 transcripts in bone marrow stromal cells; experiment: Northern blot of IL-6 transcripts; format: cell-based; settings: three-hour exposure, increasing concentrations
[11] = system: HLA-DR, the transferrin receptor (CD71), the IL-2 receptor (CD25), and CD69; settings: MLR-stimulated lymphocytes; Singer et al.; cited from earlier work
[12] = system: SV40 T-antigen-transformed human kidney mesangial cells; experiment: Growth of transformed mesangial cells by tritiated thymidine uptake; format: cell-based
Description: SV40 T-antigen-transformed human kidney mesangial cells were cultured under standard conditions with rhIL-1 or with TNFα with and without pentoxifylline (PTX). Transformed mesangial cells grow independently of added growth factors, but IL-1 and TNFα are the normal proliferative signals for mesangial cells. As was shown in Example 1, when IL-1 is added to kidney mesangial cells, within 30 seconds LPAAT and PAPH are activated; the effect of both of these enzymes is inhibited by pentoxifylline at 1 mM. In this experiment, the growth of the treated cells was measured using tritiated thymidine uptake.

[13] = system: TNF transcripts in CD3 positive lymphocytes; experiment: Northern blot, mixed lymphocyte reaction; format: cell-based; settings: Figure 19A
[14] = system: TNFα transcripts in U937 cells; experiment: Northern blot of TNF transcripts after LPS induction; format: cell-based; settings: 1 mM PTX; LPS for three hours
[15] = system: human leukemic cell line (Mo7e); experiment: GM-CSF-stimulated colony formation in semisolid medium; format: cell-based; settings: colonies counted 10 days after culture initiation; Figure 14
Description: The human leukemic cell line (Mo7e) is dependent on added granulocyte-macrophage colony-stimulating factor (GM-CSF) for growth. Mo7e cells were cultured in semisolid medium with and without pentoxifylline (PTX) and rhGM-CSF. Colonies were counted 10 days after culture initiation under an inverted microscope. […] PTX thus prevents the up-regulation of activation-associated genes which inhibit proliferation.

[16] = 33°C, 5 days, pentoxifylline 1 mM

What does the source list for `O=C(O)c1cn(C2CC2)c2cc(N3CCNCC3)c(F)cc2c1=O` [Ciprofloxacin]?
Growth (NIH3T3 cell line (D5C3); [16]): ++; Phenotype (NIH3T3 cell line (D5C3); [16]): ++; inhibition of the transformed phenotype (NIH3T3 cell line (D5C3); pentoxifylline 1 mM, Ciprofloxacin 50 µg/ml): significant effect

Which “suppression of T cell proliferation” value (T cell proliferation) does the source give for `Cn1c(=O)n(CCCCC(C)(C)O)c(=O)c2[nH]cnc21` [HWA138] here?
The value was “minimal or no suppression”.

For `CCOCn1cnc2c1c(=O)n(CCCCC(C)(C)O)c(=O)n2C` [HWA448], which “suppression of T cell proliferation” value (T cell proliferation) is on record?
Its value is “active”.

For `CC(O)CCCCn1c(=O)c2c(ncn2C)n(C)c1=O` (stereo not drawn) [M1, 1-(5-hydroxyhexyl) -3,7-dimethylxanthine], which “suppression of T cell proliferation” value (T cell proliferation) is on record?
Its value is “active”.

For `CC(O)C(O)CCCn1c(=O)c2c(ncn2C)n(C)c1=O` (stereo not drawn) [M3, 1-(4,5-dihydroxyhexyl) -3,7-dimethylxanthine], which “suppression of T cell proliferation” value (T cell proliferation) is on record?
Its value is “minimal or no suppression”.

For `Cn1cnc2c1c(=O)n(CCCCC(=O)O)c(=O)n2C` [M4, 1-(4-carboxybutyl)-3,7-dimethylxanthine], which “suppression of T cell proliferation” value (T cell proliferation) is on record?
The value was “minimal or no suppression”.

With `Cn1cnc2c1c(=O)n(CCCC(=O)O)c(=O)n2C` [M5, 1-(3-carboxypropyl)-3,7-dimethylxanthine] as the molecule, how does the “suppression of T cell proliferation” value (T cell proliferation) read?
Its value is “minimal or no suppression”.

With `CC(=O)CCCCn1c(=O)c2c(ncn2C)n(C)c1=O` [Pentoxifylline] as the molecule, how does the “synthesis of IL-8” value [1] read?
Its value is “did not inhibit”.

And the appearance of cells (NIH3T3 cell line (D5C3); 1 mM, 33°C, 5 days)?
Its appearance of cells is “predominantly non-transformed, fibroblastic appearance”.

What about the Growth (NIH3T3 cell line (D5C3); [16]) of the same molecule?
The Growth was “+++”.

And the Phenotype (NIH3T3 cell line (D5C3); [16])?
The Phenotype was “+++”.

And the inhibition at 1000 µM (NIH3T3 cell line (D5C3); Mus musculus, NIH3T3, 120 h, 1 mM, 33°C, 5 days, read-out: overall number of cells diminished)?
Its inhibition at 1000 µM is about 50%.

What about the IL-2 transcripts [2] of the same molecule?
Its IL-2 transcripts is “but not of IL-2 transcripts”.

What about the “levels of Steel factor transcripts” value [3] of the same molecule?
The value was “increases”.

What about the “inhibition of PAPH” value ([4]; 0.5 mM) of the same molecule?
Its value is “inhibits”.

And the “dose range resulting in inhibition of phosphatidate phosphohydrolase” value ([4]; IL-1-stimulated HMC)?
The value was “greater than 500 µM”.

And the “dose range resulting in inhibition of lyso PA acyl transferase” value [5]?
The value was “greater than 500 µM”.

And the tumor weight ([6]; 100 mg/kg intraperitoneally once daily)?
Its tumor weight is 0.45 ± 0.2 g.

And the tumor weight ([6]; 100 mg/kg intraperitoneally twice daily)?
Its tumor weight is 0.2 ± 0.1 g.

And the minimal effective concentration [7]?
Its minimal effective concentration is at least 500 µM.

And the “Proliferation of CD3-positive lymphocytes” value (CD3-positive lymphocytes; CD2-positive cells stimulated by solid-phase monoclonal antibody)?
The value was “strikingly inhibited”.

What about the thymidine uptake (CD3-positive lymphocytes; antibody 64.1, harvested after 5 days, not reversed by IL-1 or TNF) of the same molecule?
Its thymidine uptake is “diminished”.

What about the IL-2 receptor transcripts [8] of the same molecule?
The IL-2 receptor transcripts was “suppression”.

And the “proliferation of lymphocytes induced by anti-CD3” value (T cell proliferation)?
The value was “suppressed”.

What about the “cyclical formation of PA, and conversion of PA to DAG” value ([9]; 100 µM pentoxifylline, 10^-11 M IL-1, 15- and 60-second points) of the same molecule?
The value was “no change”.

What about the “conversion of PA to DAG” value ([9]; 500 µM pentoxifylline, 10^-11 M IL-1, 15 second time point) of the same molecule?
Its value is “slight attenuation”.

What about the “elevation of PA and DAG by IL-1” value ([9]; 1 mM, all time points examined (15-60 seconds)) of the same molecule?
Its value is “abolishes”.

And the “production of IL-6 transcripts” value [10]?
Its value is “increased”.

What about the “expression of cell surface antigens on lymphocytes” value [11] of the same molecule?
The value was “decreased”.

And the “proliferative effect of TNF” value ([12]; TNFα, Figure 13B)?
Its value is “enhances”.

What about the “growth stimulated by IL-1” value ([12]; rhIL-1, Figure 13A) of the same molecule?
Its value is “arrested growth”.

And the TNF transcripts [13]?
The TNF transcripts was “suppression”.

What about the “TNF RNA obtained in response to LPS stimulation” value [14] of the same molecule?
The value was “undetectable level”.

And the “GM-CSF-stimulated growth of colonies” value [15]?
Its value is “enhanced”.

— patent EP1214938A2, “Modulation of cellular response to external stimuli” (priority 1991, dated 1992)
